In brackets after ≈: the same amount, converted by molar mass.
Assays:
[1] = acute toxicity test, intravenous; conditions: mouse, in vivo, ICR mice, observed for 14 days
Excerpt: The results are shown in the last row of Table 2.

[2] = test system: Enterobacter aerogenes ATCC 29751; assay: minimal inhibitory concentration, two-fold agar dilution; type: cell-based; conditions: Klebsiella aerogenes, ATCC29751, 20 h
Protocol: (§1) These NIC values were taken by employing a two-fold dilution method: that is, two-fold serial dilutions of each of the test compounds were made and dispersed in a Muller-Hinton agar medium; 2 μl of the standard test strain which had the 10^7 CFU (Colony Forming Unit) per ml was inoculated on the medium; and these were incubated at 37° C. for 20 hours.

[3] = test system: Bacillus megaterium ATCC 9885; assay: as above; type: cell-based; conditions: Priestia megaterium, ATCC9885, 20 h
Protocol: as §1

[4] = test system: Salmonella typhimurium ATCC 14028; assay: as above; type: cell-based; conditions: Salmonella enterica, Muller-Hinton agar, 37° C., 20 hours
Protocol: as §1

[5] = test system: Bacillus cereus ATCC 11778; assay: as above; type: cell-based; conditions: Bacillus cereus, ATCC11778, 20 h
Protocol: as §1

[6] = test system: Acinetobacter calcoaceticus ATCC 15473; assay: as above; type: cell-based; conditions: ATCC15473, Muller-Hinton agar, 37° C., 20 hours
Protocol: as §1

[7] = test system: Pseudomonas aeruginosa ATCC 25619; assay: as above; type: cell-based; conditions: ATCC25619, Muller-Hinton agar, 37° C., 20 hours
Protocol: as §1

[8] = test system: Citrobacter freundii ATCC 8090; assay: as above; type: cell-based; conditions: ATCC8090, Muller-Hinton agar, 37° C., 20 hours
Protocol: as §1

[9] = test system: Shigella sonnei ATCC 11060; assay: as above; type: cell-based; conditions: ATCC11060, Muller-Hinton agar, 37° C., 20 hours
Protocol: as §1

[10] = test system: Serratia marcescens ATCC 27117; assay: as above; type: cell-based; conditions: ATCC27117, Muller-Hinton agar, 37° C., 20 hours
Protocol: as §1

[11] = test system: Escherichia coli ATCC 25922; assay: as above; type: cell-based; conditions: ATCC25922, Muller-Hinton agar, 37° C., 20 hours
Protocol: as §1

[12] = test system: Shigella flexneri ATCC 11836; assay: as above; type: cell-based; conditions: ATCC11836, Muller-Hinton agar, 37° C., 20 hours
Protocol: as §1

[13] = test system: Escherichia coli ATCC 10536; assay: as above; type: cell-based; conditions: ATCC10536, Muller-Hinton agar, 37° C., 20 hours
Protocol: as §1

[14] = test system: Staphylococcus aureus ATCC 6638p; assay: as above; type: cell-based; conditions: ATCC6638P, 20 h
Protocol: as §1

[15] = test system: Pseudomonas aerugionsa ATCC 27853; assay: as above; type: cell-based; conditions: ATCC27853, Muller-Hinton agar, 37° C., 20 hours
Protocol: as §1

[16] = test system: Enterobacter cloacae ATCC 27508; assay: as above; type: cell-based; conditions: ATCC27508, Muller-Hinton agar, 37° C., 20 hours
Protocol: as §1

[17] = test system: Micrococcus luteus ATCC 9341; assay: as above; type: cell-based; conditions: ATCC9341, Muller-Hinton agar, 37° C., 20 hours
Protocol: as §1

[18] = test system: Pseudomonas aerugionsa ATCC 10145; assay: as above; type: cell-based; conditions: ATCC10145, Muller-Hinton agar, 37° C., 20 hours
Protocol: as §1

[19] = test system: Proteus mirabilis ATCC 25933; assay: as above; type: cell-based; conditions: ATCC25933, Muller-Hinton agar, 37° C., 20 hours
Protocol: as §1

[20] = test system: Proteus vulgaris ATCC 6059; assay: as above; type: cell-based; conditions: ATCC6059, Muller-Hinton agar, 37° C., 20 hours
Protocol: as §1

[21] = test system: Providencia rettgeri ATCC 9250; assay: as above; type: cell-based; conditions: ATCC9250, Muller-Hinton agar, 37° C., 20 hours
Protocol: as §1

[22] = test system: Morganella morganii ATCC 8076h; assay: as above; type: cell-based; conditions: ATCC8076H, 20 h
Protocol: as §1

[23] = test system: Staphylococcus epidermidis ATCC 10537; assay: as above; type: cell-based; conditions: ATCC10537, Muller-Hinton agar, 37° C., 20 hours
Protocol: as §1

[24] = test system: ATCC 12228; assay: as above; type: cell-based; conditions: Staphylococcus faecalis, ATCC12228, 20 h
Protocol: as §1

[25] = test system: Klebsiella pneumoniae ATCC 10031; assay: as above; type: cell-based; conditions: ATCC10031, Muller-Hinton agar, 37° C., 20 hours
Protocol: as §1

[26] = test system: Streptococcus faecalis ATCC 29212; assay: as above; type: cell-based; conditions: Enterococcus faecalis, ATCC29212, Muller-Hinton agar, 37° C., 20 hours
Protocol: as §1

C[C@H](O/N=C(\C(=O)NC1C(=O)N2C(C(=O)[O-])=C(CSc3nc(N)cc(N)[n+]3-c3ccccc3)CS[C@H]12)c1csc(N)n1)C(=O)O (stereo partly drawn) [I-S-5, 7-[(Z)-2-(2-aminothiazol-4-yl)-2-[(S)-1-carboxyeth-1-oxyimino]acetamido]-3-[(4,6-diamino-1-phenylpyrimidinium-2-yl)thiomethyl]-3-cephem-4-carboxylate]
LD50 at 336 h [1]: > 2000 mg/kg | MIC [2]: 2 µg/mL (≈ 2.98 µM) | MIC [3]: 0.25 µg/mL (≈ 0.372 µM) | MIC [4]: 0.5 µg/mL (≈ 0.744 µM) | MIC [5]: 32 µg/mL (≈ 47.6 µM) | MIC [6]: 16 µg/mL (≈ 23.8 µM) | MIC [7]: 2 µg/mL (≈ 2.98 µM) | MIC [8]: 0.13 µg/mL (≈ 0.194 µM) | MIC [9]: 0.25 µg/mL (≈ 0.372 µM) | MIC [10]: 0.5 µg/mL (≈ 0.744 µM) | MIC [11]: 0.25 µg/mL (≈ 0.372 µM) | MIC [12]: 0.13 µg/mL (≈ 0.194 µM) | MIC [13]: 0.25 µg/mL (≈ 0.372 µM) | MIC [14]: 4 µg/mL (≈ 5.95 µM) | MIC [15]: 4 µg/mL (≈ 5.95 µM) | MIC [16]: 0.031 µg/mL (≈ 0.0461 µM) | MIC [17]: 0.25 µg/mL (≈ 0.372 µM) | MIC [18]: 8 µg/mL (≈ 11.9 µM) | MIC [19]: 0.13 µg/mL (≈ 0.194 µM) | MIC [20]: 0.063 µg/mL (≈ 0.0938 µM) | MIC [21]: ≤ 0.008 µg/mL | MIC [22]: ≤ 0.008 µg/mL | MIC [23]: 4 µg/mL (≈ 5.95 µM) | MIC [24]: 2 µg/mL (≈ 2.98 µM) | MIC [25]: 0.13 µg/mL (≈ 0.194 µM) | MIC [26]: > 128 µg/mL

CC[n+]1c(N)cc(N)nc1SCC1=C(C(=O)[O-])N2C(=O)C(NC(=O)/C(=N\O[C@@H](C)C(=O)O)c3csc(N)n3)[C@H]2SC1 (stereo partly drawn) [I-S-3, 7[(Z)-2-(2-aminothiazol-4-yl)-2[(S)-1-carboxyeth-1-oxyimino]acetamido]-3-[(4,6-diamino-1-ethylpyrimidinium-2-yl)thiomethyl]-3-cephem-4-carboxylate]
LD50 at 336 h [1]: > 3000 mg/kg | MIC [2]: 1 µg/mL (≈ 1.6 µM) | MIC [3]: 0.25 µg/mL (≈ 0.401 µM) | MIC [4]: 0.13 µg/mL (≈ 0.208 µM) | MIC [5]: 32 µg/mL (≈ 51.3 µM) | MIC [6]: 4 µg/mL (≈ 6.41 µM) | MIC [7]: 1 µg/mL (≈ 1.6 µM) | MIC [8]: 0.031 µg/mL (≈ 0.0497 µM) | MIC [9]: 0.063 µg/mL (≈ 0.101 µM) | MIC [10]: 0.063 µg/mL (≈ 0.101 µM) | MIC [11]: 0.031 µg/mL (≈ 0.0497 µM) | MIC [12]: 0.016 µg/mL (≈ 0.0257 µM) | MIC [13]: 0.031 µg/mL (≈ 0.0497 µM) | MIC [14]: 2 µg/mL (≈ 3.21 µM) | MIC [15]: 1 µg/mL (≈ 1.6 µM) | MIC [16]: ≤ 0.008 µg/mL | MIC [17]: 0.25 µg/mL (≈ 0.401 µM) | MIC [18]: 2 µg/mL (≈ 3.21 µM) | MIC [19]: 0.031 µg/mL (≈ 0.0497 µM) | MIC [20]: 0.031 µg/mL (≈ 0.0497 µM) | MIC [21]: ≤ 0.008 µg/mL | MIC [22]: ≤ 0.008 µg/mL | MIC [23]: 1 µg/mL (≈ 1.6 µM) | MIC [24]: 1 µg/mL (≈ 1.6 µM) | MIC [25]: 0.031 µg/mL (≈ 0.0497 µM) | MIC [26]: > 128 µg/mL

CCC[n+]1c(N)cc(N)nc1SCC1=C(C(=O)[O-])N2C(=O)C(NC(=O)/C(=N\O[C@@H](C)C(=O)O)c3csc(N)n3)[C@H]2SC1 (stereo partly drawn) [I-S-4, 7-[(Z)-2-(2-aminothiazol-4-yl)-2-[(S)-1-carboxyeth-1-oxyimino]acetamido]-3-[(4,6-diamino-1-propylpyrimidinium-2-yl)thiomethyl]-3-cephem-4-carboxylate]
LD50 at 336 h [1]: > 3000 mg/kg | MIC [2]: 1 µg/mL (≈ 1.57 µM) | MIC [3]: 0.5 µg/mL (≈ 0.784 µM) | MIC [4]: 0.13 µg/mL (≈ 0.204 µM) | MIC [5]: 32 µg/mL (≈ 50.2 µM) | MIC [6]: 4 µg/mL (≈ 6.27 µM) | MIC [7]: 1 µg/mL (≈ 1.57 µM) | MIC [8]: 0.031 µg/mL (≈ 0.0486 µM) | MIC [9]: 0.063 µg/mL (≈ 0.0988 µM) | MIC [10]: 0.13 µg/mL (≈ 0.204 µM) | MIC [11]: 0.031 µg/mL (≈ 0.0486 µM) | MIC [12]: 0.031 µg/mL (≈ 0.0486 µM) | MIC [13]: 0.031 µg/mL (≈ 0.0486 µM) | MIC [14]: 2 µg/mL (≈ 3.14 µM) | MIC [15]: 1 µg/mL (≈ 1.57 µM) | MIC [16]: ≤ 0.008 µg/mL | MIC [17]: 0.13 µg/mL (≈ 0.204 µM) | MIC [18]: 2 µg/mL (≈ 3.14 µM) | MIC [19]: 0.031 µg/mL (≈ 0.0486 µM) | MIC [20]: 0.031 µg/mL (≈ 0.0486 µM) | MIC [21]: ≤ 0.008 µg/mL | MIC [22]: ≤ 0.008 µg/mL | MIC [23]: 1 µg/mL (≈ 1.57 µM) | MIC [24]: 1 µg/mL (≈ 1.57 µM) | MIC [25]: 0.031 µg/mL (≈ 0.0486 µM) | MIC [26]: > 128 µg/mL

CCC[n+]1c(N)cc(N)nc1SCC1=C(C(=O)[O-])N2C(=O)C(NC(=O)/C(=N\O[C@H](C)C(=O)O)c3csc(N)n3)[C@H]2SC1 (stereo partly drawn) [I-R-4, 7-[(Z)-2-(2-aminothiazol-4-yl)-2-[(R)-1-carboxyeth-1-oxyimino]acetamido]-3-[(4,6-diamino-1-propylpyrimidinium-2-yl)thiomethyl]-3-cephem-4-carboxylate]
LD50 at 336 h [1]: > 3000 mg/kg | MIC [2]: 1 µg/mL (≈ 1.57 µM) | MIC [3]: 0.5 µg/mL (≈ 0.784 µM) | MIC [4]: 0.25 µg/mL (≈ 0.392 µM) | MIC [5]: 64 µg/mL (≈ 100 µM) | MIC [6]: 8 µg/mL (≈ 12.5 µM) | MIC [7]: 1 µg/mL (≈ 1.57 µM) | MIC [8]: 0.063 µg/mL (≈ 0.0988 µM) | MIC [9]: 0.063 µg/mL (≈ 0.0988 µM) | MIC [10]: 0.13 µg/mL (≈ 0.204 µM) | MIC [11]: 0.063 µg/mL (≈ 0.0988 µM) | MIC [12]: 0.031 µg/mL (≈ 0.0486 µM) | MIC [13]: 0.063 µg/mL (≈ 0.0988 µM) | MIC [14]: 2 µg/mL (≈ 3.14 µM) | MIC [15]: 2 µg/mL (≈ 3.14 µM) | MIC [16]: 0.016 µg/mL (≈ 0.0251 µM) | MIC [17]: 0.5 µg/mL (≈ 0.784 µM) | MIC [18]: 4 µg/mL (≈ 6.27 µM) | MIC [19]: 0.063 µg/mL (≈ 0.0988 µM) | MIC [20]: 0.063 µg/mL (≈ 0.0988 µM) | MIC [21]: ≤ 0.008 µg/mL | MIC [22]: ≤ 0.008 µg/mL | MIC [23]: 2 µg/mL (≈ 3.14 µM) | MIC [24]: 1 µg/mL (≈ 1.57 µM) | MIC [25]: 0.063 µg/mL (≈ 0.0988 µM) | MIC [26]: > 128 µg/mL
